Laboratory results from the NIST ThermoML archive (doi:10.1021/je8006474).
Numbers after ± are expanded uncertainties.

What was measured:
[1] = 101.33 kPa, Liquid, Pycnometric method
[2] = xn = mol fraction of the nth substance listed; conditions: Pycnometric method

Fc1ccc(F)c(F)c1F [1,2,3,4-tetrafluorobenzene]
[1]
Conditions	mass density [kg/m3]
296.4 K	1408 ± 40
327.4 K	1360 ± 40

Fc1cc(F)c(F)c(F)c1 [1,2,3,5-tetrafluorobenzene]
[1]
Conditions	mass density [kg/m3]
296.3 K	1403 ± 37
325.9 K	1352 ± 37

Fc1cc(F)c(F)c(F)c1 [1,2,3,5-tetrafluorobenzene] + CCn1cc[n+](C)c1.O=S(=O)([N-]S(=O)(=O)C(F)(F)F)C(F)(F)F
[2]
Conditions	molar volume [m3/mol]
283.5 K, Liquid mixture 1, x1 = 0.659	0.0001523 ± 1.1e-05
283.5 K, Liquid mixture 2, x1 = 1	0.0001053 ± 5.1e-06
298.3 K, Liquid mixture 1, x1 = 0.652	0.0001562 ± 1.1e-05
298.3 K, Liquid mixture 2, x1 = 1	0.0001069 ± 5.1e-06
316.7 K, Liquid mixture 1, x1 = 0.647	0.0001579 ± 1.1e-05
316.7 K, Liquid mixture 2, x1 = 1	0.0001096 ± 5.1e-06
333.2 K, Liquid mixture 1, x1 = 0.638	0.0001605 ± 1.1e-05
333.2 K, Liquid mixture 2, x1 = 1	0.0001119 ± 5.1e-06
353.1 K, Liquid mixture 1, x1 = 0.631	0.000164 ± 1.1e-05
353.1 K, Liquid mixture 2, x1 = 1	0.0001149 ± 5.1e-06
373 K, Liquid mixture 1, x1 = 0.623	0.0001688 ± 1.1e-05
373 K, Liquid mixture 2, x1 = 1	0.000118 ± 5.1e-06

Fc1cccc(F)c1F [1,2,3-trifluorobenzene]
[1]
Conditions	mass density [kg/m3]
296 K	1292 ± 36
331.6 K	1240 ± 36

Fc1cc(F)c(F)cc1F [1,2,4,5-tetrafluorobenzene]
[1]
Conditions	mass density [kg/m3]
296.7 K	1421 ± 36
327.4 K	1370 ± 36

Fc1cc(F)c(F)cc1F [1,2,4,5-tetrafluorobenzene] + CCn1cc[n+](C)c1.O=S(=O)([N-]S(=O)(=O)C(F)(F)F)C(F)(F)F
[2]
Conditions	molar volume [m3/mol]
283.3 K, Liquid mixture 1, x1 = 0.736	0.0001422 ± 5.2e-06
283.3 K, Liquid mixture 2, x1 = 0.999	0.000103 ± 3e-06
298.2 K, Liquid mixture 1, x1 = 0.731	0.0001449 ± 5.2e-06
298.2 K, Liquid mixture 2, x1 = 0.999	0.0001047 ± 3e-06
315.5 K, Liquid mixture 1, x1 = 0.725	0.0001473 ± 5.2e-06
315.5 K, Liquid mixture 2, x1 = 1	0.0001074 ± 3e-06
333.2 K, Liquid mixture 1, x1 = 0.718	0.0001508 ± 5.2e-06
333.2 K, Liquid mixture 2, x1 = 1	0.0001095 ± 3e-06
353.1 K, Liquid mixture 1, x1 = 0.71	0.0001551 ± 5.2e-06
353.1 K, Liquid mixture 2, x1 = 1	0.0001124 ± 3e-06
373 K, Liquid mixture 1, x1 = 0.702	0.0001595 ± 5.2e-06
373 K, Liquid mixture 2, x1 = 1	0.0001157 ± 3e-06

Fc1ccc(F)c(F)c1 [1,2,4-trifluorobenzene] + CCn1cc[n+](C)c1.O=S(=O)([N-]S(=O)(=O)C(F)(F)F)C(F)(F)F
molar volume [m3/mol], [2]
Conditions	Liquid mixture 1, x1 = 0.891	Liquid mixture 1, x1 = 0.892	Liquid mixture 1, x1 = 0.893	Liquid mixture 2, x1 = 0.977
362.4 K	–	–	0.0001242 ± 5.2e-06	0.0001135 ± 6.2e-06
367.4 K	–	0.0001247 ± 5.2e-06	–	0.000114 ± 6.2e-06
372.4 K	0.0001252 ± 5.2e-06	–	–	0.0001145 ± 6.2e-06

Fc1cc(F)cc(F)c1 [1,3,5-trifluorobenzene] + CCn1cc[n+](C)c1.O=S(=O)([N-]S(=O)(=O)C(F)(F)F)C(F)(F)F
[2]
Conditions	molar volume [m3/mol]
283.5 K, Liquid mixture 1, x1 = 0.497	0.0001754 ± 1.3e-05
283.5 K, Liquid mixture 2, x1 = 1	0.0001013 ± 3.6e-06
298.2 K, Liquid mixture 1, x1 = 0.498	0.0001762 ± 1.3e-05
298.2 K, Liquid mixture 2, x1 = 1	0.0001035 ± 3.6e-06
316.6 K, Liquid mixture 1, x1 = 0.487	0.000179 ± 1.3e-05
316.6 K, Liquid mixture 2, x1 = 1	0.0001057 ± 3.6e-06
333.2 K, Liquid mixture 1, x1 = 0.482	0.0001815 ± 1.3e-05
333.2 K, Liquid mixture 2, x1 = 1	0.000108 ± 3.6e-06
353.1 K, Liquid mixture 1, x1 = 0.478	0.000183 ± 1.3e-05
353.1 K, Liquid mixture 2, x1 = 1	0.0001108 ± 3.6e-06
373 K, Liquid mixture 1, x1 = 0.482	0.0001846 ± 1.3e-05
373 K, Liquid mixture 2, x1 = 1	0.0001144 ± 3.6e-06

Fc1cccc(F)c1 [1,3-difluorobenzene] + CCn1cc[n+](C)c1.O=S(=O)([N-]S(=O)(=O)C(F)(F)F)C(F)(F)F
[2]
Conditions	molar volume [m3/mol]
283.3 K, Liquid mixture 1, x1 = 0.757	0.000134 ± 7.2e-06
283.3 K, Liquid mixture 2, x1 = 1	9.82e-05 ± 7.6e-06
294.4 K, Liquid mixture 1, x1 = 0.755	0.0001363 ± 7.2e-06
294.4 K, Liquid mixture 2, x1 = 1	9.93e-05 ± 7.6e-06
316.1 K, Liquid mixture 1, x1 = 0.753	0.0001404 ± 7.2e-06
316.1 K, Liquid mixture 2, x1 = 1	0.000102 ± 7.6e-06
333.3 K, Liquid mixture 1, x1 = 0.748	0.0001429 ± 7.2e-06
333.3 K, Liquid mixture 2, x1 = 1	0.000104 ± 7.6e-06
353.1 K, Liquid mixture 1, x1 = 0.742	0.000146 ± 7.2e-06
353.1 K, Liquid mixture 2, x1 = 1	0.0001065 ± 7.6e-06
373 K, Liquid mixture 1, x1 = 0.736	0.0001492 ± 7.2e-06
373 K, Liquid mixture 2, x1 = 1	0.000109 ± 7.6e-06

Fc1ccc(F)cc1 [1,4-difluorobenzene] + CCn1cc[n+](C)c1.O=S(=O)([N-]S(=O)(=O)C(F)(F)F)C(F)(F)F
[2]
Conditions	molar volume [m3/mol]
283.4 K, Liquid mixture 1, x1 = 0.816	0.0001239 ± 7.2e-06
283.4 K, Liquid mixture 2, x1 = 1	9.76e-05 ± 6.4e-06
294.4 K, Liquid mixture 1, x1 = 0.814	0.0001255 ± 7.2e-06
294.4 K, Liquid mixture 2, x1 = 1	9.88e-05 ± 6.4e-06
316.2 K, Liquid mixture 1, x1 = 0.81	0.0001288 ± 7.2e-06
316.2 K, Liquid mixture 2, x1 = 1	0.000101 ± 6.4e-06
343.2 K, Liquid mixture 1, x1 = 0.807	0.0001337 ± 7.2e-06
343.2 K, Liquid mixture 2, x1 = 0.999	0.0001038 ± 6.4e-06
353.1 K, Liquid mixture 1, x1 = 0.804	0.0001354 ± 7.2e-06
353.1 K, Liquid mixture 2, x1 = 0.999	0.000105 ± 6.4e-06
373 K, Liquid mixture 1, x1 = 0.799	0.0001387 ± 7.2e-06
373 K, Liquid mixture 2, x1 = 0.999	0.0001069 ± 6.4e-06

Fc1ccccc1 [fluorobenzene] + CCn1cc[n+](C)c1.O=S(=O)([N-]S(=O)(=O)C(F)(F)F)C(F)(F)F
[2]
Conditions	molar volume [m3/mol]
282.5 K, Liquid mixture 1, x1 = 0.875	0.0001125 ± 5.6e-06
282.5 K, Liquid mixture 2, x1 = 0.992	9.31e-05 ± 2.4e-06
297.9 K, Liquid mixture 1, x1 = 0.875	0.0001137 ± 5.6e-06
297.9 K, Liquid mixture 2, x1 = 0.991	9.45e-05 ± 2.4e-06
315.5 K, Liquid mixture 1, x1 = 0.874	0.000115 ± 5.6e-06
315.5 K, Liquid mixture 2, x1 = 0.99	9.61e-05 ± 2.4e-06
333.2 K, Liquid mixture 1, x1 = 0.872	0.0001169 ± 5.6e-06
333.2 K, Liquid mixture 2, x1 = 0.989	9.84e-05 ± 2.4e-06
353.1 K, Liquid mixture 1, x1 = 0.869	0.0001197 ± 5.6e-06
353.1 K, Liquid mixture 2, x1 = 0.989	0.000101 ± 2.4e-06
373 K, Liquid mixture 1, x1 = 0.865	0.0001231 ± 5.6e-06
373 K, Liquid mixture 2, x1 = 0.989	0.0001035 ± 2.4e-06

Fc1cc(F)c(F)c(F)c1F [pentafluorobenzene] + CCn1cc[n+](C)c1.O=S(=O)([N-]S(=O)(=O)C(F)(F)F)C(F)(F)F
[2]
Conditions	molar volume [m3/mol]
283.4 K, Liquid mixture 1, x1 = 0.715	0.0001484 ± 6.2e-06
283.4 K, Liquid mixture 2, x1 = 0.997	0.0001093 ± 4.8e-06
298.2 K, Liquid mixture 1, x1 = 0.704	0.0001523 ± 6.2e-06
298.2 K, Liquid mixture 2, x1 = 0.998	0.0001109 ± 4.8e-06
316.6 K, Liquid mixture 1, x1 = 0.696	0.0001552 ± 6.2e-06
316.6 K, Liquid mixture 2, x1 = 0.997	0.0001139 ± 4.8e-06
333.2 K, Liquid mixture 1, x1 = 0.681	0.0001605 ± 6.2e-06
333.2 K, Liquid mixture 2, x1 = 1	0.0001155 ± 4.8e-06
353.1 K, Liquid mixture 1, x1 = 0.669	0.0001652 ± 6.2e-06
353.1 K, Liquid mixture 2, x1 = 1	0.0001187 ± 4.8e-06
373 K, Liquid mixture 1, x1 = 0.657	0.0001692 ± 6.2e-06
373 K, Liquid mixture 2, x1 = 1	0.0001228 ± 4.8e-06
